From patent US11731933B2, “Device and method for the desalination of water by means of thermal deionisation and liquid-phase ion extraction liquid” (ADIONICS, priority 2015, dated 2023)
≈ marks a conversion by molar mass, not a printed value. Where “and” joins values, the source holds several entries; their conditions need not be identical. Identical values can stand only once. Like-named read-outs stand apart in the source and are kept apart here.

Experiments:
[1] = Solubility in water (UV-visible spectrometry); format: physicochemical; settings: for solubility: water
Description: The hydrophobicity or solubility of a compound can be measured by standard methods and in particular by UV-visible spectrometry.

[2] = NaCl extraction from 0.2M NaCl water by ASM/CEM composition, ion chromatography of treated water; settings: ASM: 3TFMPhOH; CEM 0.2M; NaCl 0.2M water
Method: To 3 mL of 3-(trifluoromethyl)phenol, was added 217 mg of Dibenzo-18-crown-6 in order to obtain a formulation with 0.2 mole/L of DB18C6. This sealed formulation was then orbitally stirred at 500 rpm overnight after 1 mL of distilled water was added twice to allow water saturation of the whole.
The next morning, an aqueous 0.2 mol/L NaCl solution was prepared from twice distilled water, while the formulation that was stirred overnight was allowed to stand for decantation. A clear decantation of the two colorless phases is obtained in a few minutes. 3 mL of the organic extraction solution is then removed and transferred to a flask containing 3 mL of this salt water containing 0.2 M NaCl, then the flask is sealed and orbitally stirred (usually 500 rpm), for 3 hours and at room temperature. It is verified that droplets of the order of 1-2 mm are present in quantity at the selected stirring speed (400 to 900 rpm).
After stirring for 2 hours, stirring is stopped and the whole is left to stand for decantation for at least 10 minutes until the two phases are completely separated. The upper aqueous phase is then removed and then stirred and diluted for analysis of its salinity by a Metrohm Ion Chromatography Incorporating a suitable cation analysis column and a suitable anion analysis column. Similarly, the initial aqueous solution of 0.2M NaCl is also analyzed by this ion chromatography equipment to determine its relative concentration of sodium and chlorides. […]

[3] = methanol, published complexing constants, cited from earlier work
[4] = NaCl extraction from 0.3M NaCl water by ASMC7 at four concentrations + Calix[4]Est in chloroform (Example 12)
Method: Four extraction compositions were obtained by solubilizing a constant amount of 4-tert-butylCalix[4]arene tetraethylEster (CAS No. 97600-39-0) and four increasing amounts of ASMC7 in chloroform CHCl3 to obtain four final concentrations after solubilization of CEM and ASM, from 0.34 to 0.36 mol/L for Calix[4]Est and 0.36 mol/L, 0.71 mol/L, 1.09 mol/L and 1.49 mol/L for ASMC7, respectively. These four sealed formulations were then orbitally stirred at 500 rpm for 2 hours after adding an equivalent volume of twice distilled water to allow water saturation of the entire formulation and control of pH at the output (pH=7). The extraction composition is then put to stand for settling. All the compositions tested are stable and rapidly decanted (a few minutes at the most).
An 0.3 mol/L NaCl aqueous solution was prepared from twice distilled water.
3 ml of each organic extraction composition are then removed in the lower phase of the settled two-phase mixture and transferred to four vials, each containing 3 ml of the salt water at 0.3M NaCl, then the flasks are sealed and orbitally stirred (at 500 revolutions per minute), for 2 hours at room temperature (RT), that is to say between 20 and 25° C. In the case of extraction at 60° C., a magnetic stirring (at 500 revolutions per minute), for 2 hours, is carried out with indirect heating in a metal mold on a heating plate. It is verified that droplets of the order of 1-2 mm are present during these agitations in order to be certain to reach equilibrium in the NaCl distribution between the two liquid phases at the end of stirring. The appearance of the organic and aqueous phases is clear and colorless for these 4 formulations tested.
After stirring for 2 hours, stirring is stopped and the solution is put to stand for settling within 10 minutes, at least until the two phases have completely separated off, at the test temperature. Then, the four upper aqueous phases are separately taken and then stirred and diluted for analysis of their salinity by a Metrohm Ion Chromatograph incorporating a suitable cation analysis column and a suitable anion analysis column. Similarly, the initial aqueous solution of 0.3M NaCl is also analyzed by this ion chromatograph to determine its relative molar concentration of sodium and chlorides. All extractions and analyzes were duplicated.

[5] = NaCl extraction from 0.4M NaCl water by ASM + Calix[4]Est in chloroform (Example 11); settings: for Mol % Cl- extracted from the water to be treated / Mol % Na+ extracted from the water to be treated: CEM 0.3 Mol/L, ASM 0.3 Mol/L in CHCl3, 0.4 M NaCl
Method: The extraction composition is obtained by solubilizing an amount of 4-tert-butyl Calix[4]arene tetraethyl Ester (CAS No. 97600-39-0) and ASM in chloroform CHCl3 to obtain a final concentration after solubilization of the CEM and ASM of 0.3 mol/L for Calix[4]Est and of 0.3 mol/L for ASM, respectively. These sealed formulations were then orbitally stirred at 500 rpm for 2 hours after adding an equivalent volume of twice distilled water to allow water saturation of the entire formulation and control of pH output (pH=7). The extraction composition is then put to stand to settle. All the compositions tested are stable and rapidly decanted (a few minutes at the most).
A 0.4 mol/L NaCl aqueous solution was prepared from twice distilled water.
The organic extraction composition is then slightly heated to promote solubilization of the compounds by hot air gun (temperature of about 50 to 60° C.) for a few seconds (10 to 30 seconds) until a clear solution is obtained.
3 mL of the organic extraction composition is then removed from the lower phase of the settled two-phase mixture and transferred to a vial containing 3 mL of salt water at 0.4 M NaCl and then the flask is sealed and orbitally stirred (at 500 revolutions per minute), for 2 hours at room temperature (RT), that is to say between 20 and 25° C. In the case of extraction at 60° C., magnetic stirring (at 500 revolutions per minute), for 2 hours, is carried out with indirect heating in a metal mold on a heating plate. It is verified that droplets of the order of 1-2 mm are present during these agitations in order to be certain to achieve equilibrium in the NaCl distribution between the two liquid phases at the end of stirring. The appearance of the organic and aqueous phases is clear and colorless or slightly cloudy.
After stirring for 2 hours, stirring is stopped and the solution is put to stand to settle within 10 minutes, at least until the two phases have completely separated off, at the temperature of the test. The upper aqueous phase is then removed and then stirred and diluted for analysis of its salinity by a Metrohm Ion Chromatograph incorporating a suitable cation analysis column and a suitable anion analysis column. Similarly, the initial aqueous solution of NaCl at 0.4M is also analyzed by this ion chromatograph to determine its relative molar concentration in sodium and in chlorides. AN extractions and analyzes were duplicated.

[6] = 60° C., CEM 0.341, ASMC7 0.708 Mol/L, ratio 2.08
[7] = 60° C., CEM 0.345, ASMC7 0.358 Mol/L, ratio 1.04
[8] = 60° C., CEM 0.349, ASMC7 1.088 Mol/L, ratio 3.12
[9] = 60° C., CEM 0.358, ASMC7 1.488 Mol/L, ratio 4.16
[10] = RT, CEM 0.341, ASMC7 0.708 Mol/L, ratio 2.08
[11] = RT, CEM 0.345, ASMC7 0.358 Mol/L, ratio 1.04
[12] = RT, CEM 0.349, ASMC7 1.088 Mol/L, ratio 3.12
[13] = RT, CEM 0.358, ASMC7 1.488 Mol/L, ratio 4.16

## CC(O)c1cccc(C(F)(F)C(F)(F)C(F)(F)F)c1 (centres unmarked)
[1]
  solubility: 420 µM (≈ 122 µg/mL)

## CCCC(O)c1cc(C(F)(F)F)cc(C(F)(F)F)c1 (centres unmarked)
[1]; read-out: Solubility in water
  solubility: 480 µM (≈ 137 µg/mL)

## OC(c1cccc(C(F)(F)F)c1)c1cccc(C(F)(F)F)c1
[1]; read-out: Solubility in water
  solubility: 70 µM (≈ 22.4 µg/mL)

## 4-tert-Butylcalix[4]arene-O,O′,O″,O′′′- tetraacetic Acid Tetraethyl Ester [Calix[4]Est]
[2]
  Extraction rate at 23° C., Cl−: 77%
  Extraction rate at 23° C., Na+: 75%
  Extraction rate at 23° C., mean NaCl: 76%
[1]
  Solubility in water: < 1.10^−6 mMole/L
[3]; listed as Calix4Est
  Log K(Na+, MeOH, 25° C.): 5.0-5.7
[3]
  Log K(Na+, MeOH, 25° C.): 5.0

## CCCCCCCC(=O)Nc1cc(C(F)(F)F)cc(C(F)(F)F)c1 [ASMC7, N-[3,5-bis(trifluoromethyl)phenyl]octanamide]
[4]; [6]
  Mol % of Cl− extracted from water to be treated: 26.6% and 27.4%
  Mol % of Na+ extracted from water to be treated: 28.1% and 28.2%
[4]; [7]
  Mol % of Cl− extracted from water to be treated: 13.0% and 14.1%
  Mol % of Na+ extracted from water to be treated: 9.9% and 13.1%
[4]; [8]
  Mol % of Cl− extracted from water to be treated: 31.0% and 30.4%
  Mol % of Na+ extracted from water to be treated: 37.7% and 39.5%
[4]; [9]
  Mol % of Cl− extracted from water to be treated: 45.6% and 39.9%
  Mol % of Na+ extracted from water to be treated: 48.4% and 46.9%
[4]; [10]
  Mol % of Cl− extracted from water to be treated: 44.4%
  Mol % of Na+ extracted from water to be treated: 44.2% and 45.1%
[4]; [11]
  Mol % of Cl− extracted from water to be treated: 27.9% and 27.2%
  Mol % of Na+ extracted from water to be treated: 27.9% and 21.7%
[4]; [12]
  Mol % of Cl− extracted from water to be treated: 51.2% and 52.9%
  Mol % of Na+ extracted from water to be treated: 60.0% and 59.8%
[4]; [13]
  Mol % of Cl− extracted from water to be treated: 64.6% and 65.6%
  Mol % of Na+ extracted from water to be treated: 71.2% and 65.0%
[4]; [ASMC7]/[CEM] 1.04
  Δ % ext: 13.6%
  NaCl - 20° C. % ext (average): 26.2%
[4]; [ASMC7]/[CEM] 1.04, 60° C.
  NaCl - 60° C. % ext (average): 12.5%
[4]; [ASMC7]/[CEM] 2.08
  Δ % ext: 16.9%
  NaCl - 20° C. % ext (average): 44.5%
[4]; [ASMC7]/[CEM] 2.08, 60° C.
  NaCl - 60° C. % ext (average): 27.6%
[4]; [ASMC7]/[CEM] 3.12
  Δ % ext: 21.3%
  NaCl - 20° C. % ext (average): 55.9%
[4]; [ASMC7]/[CEM] 3.12, 60° C.
  NaCl - 60° C. % ext (average): 34.5%
[4]; [ASMC7]/[CEM] 4.16
  Δ % ext: 21.4%
  NaCl - 20° C. % ext (average): 66.6%
[4]; [ASMC7]/[CEM] 4.16, 60° C.
  NaCl - 60° C. % ext (average): 45.1%
[5]; 20° C., average molar extraction
  NaCl - 20° C. % ext (average): 24.6%
[5]; 60° C.
  Mol % Cl- extracted from the water to be treated: 7.6% and 7.3%
  Mol % Na+ extracted from the water to be treated: 5.5% and 5.4%
[5]; 60° C., average molar extraction
  NaCl - 60° C. % ext (average): 6.3%
[5]; RT
  Mol % Cl- extracted from the water to be treated: 26.3% and 25.9%
  Mol % Na+ extracted from the water to be treated: 23.6% and 22.8%
[5]; difference 20° C. minus 60° C.
  Δ % ext: 18.4%
